Measured values reported in US6610665B1 (Smithkline Beecham Corporation, priority 1998, dated 2003).
Structures can show the parent of a compound that is named as a salt.

Experiments:
Format in all cases: cell-based
Conditions in all cases: ratio to NECA
[1] = target: T1, adenosine 1 receptor (Homo sapiens, UniProt P30542); assay: Agonist activity, CHO cells transfected with human adenosine receptor and CRE-SPAP reporter; forskolin-enhanced cAMP (A1)
T1 construct: expressed in transfected cells; host or cells: CHO cells
T1 sequence (P30542 1-326): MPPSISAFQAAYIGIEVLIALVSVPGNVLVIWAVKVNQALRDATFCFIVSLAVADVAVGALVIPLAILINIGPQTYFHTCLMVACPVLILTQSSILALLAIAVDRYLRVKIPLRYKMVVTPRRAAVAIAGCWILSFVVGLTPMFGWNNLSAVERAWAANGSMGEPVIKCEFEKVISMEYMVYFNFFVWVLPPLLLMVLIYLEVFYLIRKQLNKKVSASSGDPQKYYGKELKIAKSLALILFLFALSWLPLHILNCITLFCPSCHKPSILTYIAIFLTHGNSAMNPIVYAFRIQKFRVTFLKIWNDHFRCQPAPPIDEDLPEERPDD
Experimental: (§1) (1) Agonist activity against adenosine 2a, adenosine 1 and adenosine 3 receptor subtypes.
(§2) Agonist selectivity of compounds against other human adenosine receptors is determined using Chinese hamster ovary (CHO) cells transfected with the gene for the relevant human adenosine receptor following a method based on that of Castanon and Spevak, 1994. The CHO cells are also transfected with cyclic AMP response elements promoting the gene for secreted placental alkaline phosphatase (SPAP) (Wood, 1995). The effect of test compounds may be determined by their effects on basal levels of CAMP (A2a) or on forskolin-enhanced cAMP (A1 and A3) as reflected by changes in levels of SPAP. EC50 values for compounds may then be determined as a ratio to that of the non-selective agonist N-ethyl carboxamide adenosine (NECA).

[2] = target: T2, adenosine 2a receptor (Homo sapiens, UniProt P29274); assay: Agonist activity, CHO cells transfected with human adenosine receptor and CRE-SPAP reporter; basal cAMP (A2a)
T2 construct: expressed in transfected cells; host or cells: CHO cells
T2 sequence (P29274 whole entry): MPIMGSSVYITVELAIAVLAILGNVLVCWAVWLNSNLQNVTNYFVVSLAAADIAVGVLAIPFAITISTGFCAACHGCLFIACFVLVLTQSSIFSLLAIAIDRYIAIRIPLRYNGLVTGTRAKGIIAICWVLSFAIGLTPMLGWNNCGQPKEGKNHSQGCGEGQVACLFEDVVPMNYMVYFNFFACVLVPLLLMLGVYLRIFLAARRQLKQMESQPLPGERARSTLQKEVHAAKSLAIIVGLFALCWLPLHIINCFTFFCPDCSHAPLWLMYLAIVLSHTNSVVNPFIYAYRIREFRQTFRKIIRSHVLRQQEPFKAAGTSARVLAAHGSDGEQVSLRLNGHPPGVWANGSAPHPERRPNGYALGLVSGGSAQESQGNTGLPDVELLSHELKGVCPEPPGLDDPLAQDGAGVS
Experimental: as §1, §2

[3] = target: T3, adenosine 3 receptor (Homo sapiens, UniProt P0DMS8); assay: Agonist activity, CHO cells transfected with human adenosine receptor and CRE-SPAP reporter; forskolin-enhanced cAMP (A3)
T3 construct: expressed in transfected cells; host or cells: CHO cells
T3 sequence (P0DMS8 1-318): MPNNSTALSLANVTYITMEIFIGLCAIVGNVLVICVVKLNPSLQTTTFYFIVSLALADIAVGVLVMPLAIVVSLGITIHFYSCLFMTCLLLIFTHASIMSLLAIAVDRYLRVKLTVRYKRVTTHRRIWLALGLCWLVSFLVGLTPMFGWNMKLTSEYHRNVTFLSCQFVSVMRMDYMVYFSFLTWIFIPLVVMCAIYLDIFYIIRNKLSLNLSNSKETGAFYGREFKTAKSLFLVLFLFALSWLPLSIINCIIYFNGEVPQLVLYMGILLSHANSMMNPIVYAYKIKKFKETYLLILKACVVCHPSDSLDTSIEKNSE
Experimental: as §1, §2

[4] = * data are minimum values since preparation was found, after testing, to contain an inactive impurity
[5] = ** data on retested purified compound

Row | A1, EC50 as a ratio of that of NECA [1, 5] | A2a, EC50 as a ratio of that of NECA [2, 5] | A3, EC50 as a ratio of that of NECA [3, 5] | Structure (SMILES) | A1, EC50 as a ratio of that of NECA [1, 4] | A2a, EC50 as a ratio of that of NECA [2, 4] | A3, EC50 as a ratio of that of NECA [3, 4] | A1, EC50 as a ratio of that of NECA ([1]; CHO cells, SPAP readout) | A2a, EC50 as a ratio of that of NECA ([2]; CHO cells, SPAP readout) | A3, EC50 as a ratio of that of NECA ([3]; CHO cells, SPAP readout)
1 |  |  |  | CCC(CC)Nc1nc(NCCN2CCOCC2)nc2c1ncn2[C@@H]1O[C@H](c2nc(C)no2)[C@@H](O)[C@H]1O.O=CO [Example 6, (2R,3R,4S,5S)-2-[6-(1-Ethyl-propylamino)-2-(2-morpholin-4-yl-ethylamino)-purin-9-yl]-5-(3-methyl-[1,2,4]oxadiazol-5-yl)-tetrahydro-furan-3,4-diol formate] | >4833 | 41.35 | >642 |  |  | 
2 |  |  |  | Cc1noc([C@H]2O[C@@H](n3cnc4c(NCC(c5ccccc5)c5ccccc5)nc(NCCc5cn(C)cn5)nc43)[C@H](O)[C@@H]2O)n1.O=C(O)C(F)(F)F.O=C(O)C(F)(F)F [Example 1] |  |  |  | 1306 | 1.19 | >197
3 |  |  |  | CCc1noc([C@H]2O[C@@H](n3cnc4c(NC(CC)CC)nc(NCCN5CCCCC5)nc43)[C@H](O)[C@@H]2O)n1.O=CO [Example 20, (2S,3S,4R,5R)-2-(3-Ethyl-[1,2,4]oxadiazol-5-yl)-5-[6-(1-ethyl-propylamino)-2-(2-piperidin-1-yl-ethylamino)-purin-9-yl]-tetrahydro-furan-3,4-diol formate] | >=1853 | 17.08 | >694 |  |  | 
4 |  |  |  | Cc1noc([C@H]2O[C@@H](n3cnc4c(N)nc(NCCc5cn(C)cn5)nc43)[C@H](O)[C@@H]2O)n1.O=C(O)C(F)(F)F.O=C(O)C(F)(F)F [Example 7] | 1013.4 | 11.02 | >117 |  |  | 
5 |  |  |  | CCc1noc(C2OC(n3cnc4c(N)nc(NCCc5ccccn5)nc43)C(O)C2O)n1.O=CO.O=CO (stereo not drawn) [Example 8] | >=3865 | 14.05 | >215 |  |  | 
6 |  |  |  | CCc1noc([C@H]2O[C@@H](n3cnc4c(NC(CC)CC)nc(NC5CCCC5)nc43)[C@H](O)[C@@H]2O)n1.O=CO [Example 23, (2R,3R,4S,5S)-2-[2-Cyclopentylamino-6-(1-ethyl-propylamino)-purin-9-yl]-5-(3-ethyl-[1,2,4]oxadiazol-5-yl)-tetrahydro-furan-3,4-diol formate] |  |  |  | 17.02 | 12.72 | >163
7 |  |  |  | CCC(CC)Nc1nc(N[C@H]2CCC[C@@H]2O)nc2c1ncn2[C@@H]1O[C@H](c2nc(C)no2)[C@@H](O)[C@H]1O.O=CO [Example 24, (2R,3R,4S,5S)-2-[6-(1-Ethyl-propylamino)-2-(2S-hydroxy-cyclopent-(S)-ylamino)-purin-9-yl]-5-(3-methyl-[1,2,4]oxadiazol-5-yl)-tetrahydro-furan-3,4-diol formate] |  |  |  | >5264 | 18.13 | >284
8 |  |  |  | CCC(CC)Nc1nc(NCCc2ccccn2)nc2c1ncn2[C@@H]1O[C@H](c2nc(C3CC3)no2)[C@@H](O)[C@H]1O.O=CO.O=CO [Example 37] |  |  |  | >10402 | 49.45 | >87
9 |  |  |  | CCc1noc([C@H]2O[C@@H](n3cnc4c(NCC(c5ccccc5)c5ccccc5)nc(NCCO)nc43)[C@H](O)[C@@H]2O)n1.O=CO [Example 43, (2R,3R,4S,5S)-2-[6-(2,2-Diphenyl-ethylamino)-2-(2-hydroxy-ethylamino)-purin-9-yl]-5-(3-ethyl-[1,2,4]oxadiazol-5-yl)-tetrahydro-furan-3,4-diol formate] |  |  |  | 1367.6 | 6.85 | >130
10 |  |  |  | CCc1noc([C@H]2O[C@@H](n3cnc4c(NCC(c5ccccc5)c5ccccc5)nc(NCCc5cn(C)cn5)nc43)[C@H](O)[C@@H]2O)n1.O=C(O)C(F)F.O=C(O)C(F)F [Example 2] |  |  |  | 1823 | 0.64 | >197
11 | 3006 | 0.086 | >287 | CCc1noc(C2OC(n3cnc4c(N)nc(NC(CO)Cc5ccccc5)nc43)C(O)C2O)n1 [Example 9, (2R,3R,4S,5S)-2-[6-Amino-2-(1S-hydroxymethyl-2-phenyl-ethylamino)-purin-9-yl]-5-(3-ethyl-[1,2,4oxadiazol-5-yl)-tetrahydro-furan-3,4-diol formate] | 1692.4 | 0.81 | >231 |  |  | 
12 |  |  |  | CCC(CC)Nc1nc(NC2CCNC2)nc2c1ncn2C1OC(c2nc(C)no2)C(O)C1O [Example 26, (2R,3R,4S,5S)-2-[6-(1-Ethyl-propylamino)-2-(pyrrolidin-3R-ylamino)-purin-9-yl]-5-(3-methyl-[1,2,4]oxadiazol-5-yl)-tetrahydro-furan-3,4-diol formate] | >5264 | 5.18 | >284 |  |  | 
